Results taken from patent US20040254189A1, “Jnk inhibitors” (priority 2001, published 2004).

Legend:
ERKs = experiment: Western blot analysis of activated site-specific phosphorylation of ERKs in passively sensitized RBL-2H3 cells after antigen stimulation; assay type: cell-based, rat; conditions: ten minutes after antigen stimulation
Description: (§1) Rat basophilic leukemia 2H3 (RBL-2H3) cells (JCRB0023 from Health Science Research Resources Bank) were seeded in a 6-well plate or a 60 mm dish (0.5×10^6 cells/ml) and sensitized with the anti-DNP-IgE antibody (1:2000) at 37° C. for 90 minutes, and then washed twice with a glucose/PIPES buffer. After the RBL-2H3 cells were incubated at 37° C. for 15 minutes in the presence of Compound A or DMSO (at a final concentration of 0.1%), DNP-BSA (at a final concentration of 3 ng/ml) was added, and further incubation was performed for 10 minutes. The cells were then washed twice with PBS on ice, the cells were harvested with a scraper in a cell extraction buffer for western blot analysis or kinase assay, and incubated on ice for 15 minutes, and centrifuged (14,500 rpm, 4° C., 15 minutes). The resulting supernatant was recovered.
(§2) Western Blot Analysis: The supernatant of the total protein extracted from the cells was separated by 10% SDS-PAGE. The proteins and phosphorylated proteins were detected by a chemiluminescence technique using an anti-PLCγ-1[pY783] phosphospecific antibody, an anti-PLCγ antibody, an anti-active JNK (pTPpY) antibody, an anti-phospho-MAPK (ERK1/2)(Thr202/[…]) antibody, an anti-phospho-p38MAPK (Thr180/Tyr182) antibody, an anti-p44/42MAP kinase antibody, and an anti-JNK antibody.

RBL-2H3 cells = experiment: Western blot analysis of protein expression amount in RBL-2H3 cells; assay type: cell-based, rat; conditions: treatment with Compound A
Description: as §1, §2

JNK (JNK1 and JNK2) = experiment: Western blot analysis of activated site-specific phosphorylation of JNK in passively sensitized RBL-2H3 cells after antigen stimulation; assay type: cell-based, rat
Description: as §1, §2

JNK = JNK kinase assay on protein extract of treated RBL-2H3 cells with c-Jun(1-89) as substrate; assay type: cell-based, rat; conditions: 10^−5 to 10^−7 mol/l
Description: as §1
JNK Kinase Assay: The total protein extracted from the cells (250 μg) was incubated for 12 hours with gentle rocking with GST-c-Jun(1-89) sepharose beads (2 μg) at 4° C. After washing, a kinase buffer was used for replacement. ATP ([…]) was added to start the kinase reaction. After incubation was performed at 30° C. for 30 minutes, 10% SDS-PAGE was used for separation. The phosphorylated GST-c-Jun(1-89) was detected by a chemiluminescence technique using an anti-phospho-c-Jun antibody.

PLCγ = experiment: Western blot analysis of activated site-specific phosphorylation of PLCγ in passively sensitized RBL-2H3 cells after antigen stimulation; assay type: cell-based, rat; conditions: ten minutes after antigen stimulation
Description: as §1, §2

TNF-α = experiment: Increase in the amount of TNF-α in ear tissue of IgE-passively sensitized mouse after antigen (DNFB) stimulation; assay type: in vivo; conditions: female BALB/c mice, p.o., eight hours after application of DNFB
Description: Female BALB/c mice were passively sensitized systemically by intravenous administration of 0.25 ml of a 20-fold diluted anti-DNP monoclonal antibody. On the following day, skin reactions were induced by applying 10 μl of a 0.15% dinitrofluorobenzene solution (DNFB diluted with a 4:1 mixture of acetone and olive oil) to each side of both ears of mice. Eight hours after the application of DNFB, both ears were cut off and homogenized in 400 μl of PBS using Polytron and then centrifuged (15,000 rpm, 15 minutes, 4° C.). The resulting supernatant was used as a sample. The amount of TNF-α was determined using a commercially available ELISA kit. The amount of proteins in the sample was also determined, and the amount of TNF-α was calculated per mg of protein. A preliminary test was performed in which an auricle sample was taken at certain intervals after the application of the antigen, and a time course of the amount of TNF-α was observed. The drug was orally administered one hour before the application of DNFB.

p38MAPK = experiment: Western blot analysis of activated site-specific phosphorylation of p38MAPK in passively sensitized RBL-2H3 cells after antigen stimulation; assay type: cell-based, rat; conditions: ten minutes after antigen stimulation
Description: as §1, §2

peritoneal mast cells = experiment: Antigen stimulation-induced release of TNF-α from peritoneal mast cells of passively sensitized rat; assay type: cell-based; conditions: 10^−9 to 10^−5 mol/l, 60 minutes preincubation, two hours after DNP-BSA
Description: Female Wistar rats were intraperitoneally administered 2 ml of an anti-DNP-IgE antibody (diluted 250-fold), and killed by exsanguination after 48 hours. 20 ml of a physiological mast cells medium (MCM) was injected into the abdominal cavity, and the lavage was recovered. The lavage was centrifuged at 50×g for seven minutes at 4° C. and then washed twice with MCM. Cells were suspended in 1 ml of a heparin-free MCM at a concentration of 1.25×10^5 cells/mL, and then CaCl2 was added (at a final concentration of 1 mmol/L). The resulting mixture was incubated with Compound A or DMSO (at a final concentration of 0.1%) at 37° C. for 60 minutes, and then DNP-BSA (at a final concentration of 30 ng/mL) was added, and further incubation was performed for two hours. Thereafter, the supernatant was harvested and stored at −40° C. until the amount of TNF-A was measured. The amount of TNF-α was determined using a commercially available ELISA kit.

Row | melting point | Compound | further results
1 | 219 to 220 °C | Cc1c(C(C)(C)C(=O)O)nc2ccc(NCCCN3CCC(OC(c4ccccc4)c4ccccc4)CC3)nn12 | 
2 | 162 °C | CCOC(=O)C(C)(C)n1nc2ccc(NCCCN3CCC(OC(c4ccccc4)c4ccccc4)CC3)nn2c1=O.Cl | 
3 | 162 °C | CC(C)(C)C(=O)OCOC(=O)C(C)(C)n1nc2ccc(NCCCN3CCC(OC(c4ccccc4)c4ccccc4)CC3)nn2c1=O | 
4 | 205 °C | CCOC(=O)CNC(=O)c1cn2nc(NCCCN3CCC(OC(c4ccccc4)c4ccccc4)CC3)ccc2n1.Cl.Cl | 
5 | 129 to 133 °C | CCOC(=O)c1nnc2ccc(NCCCN3CCC(OC(c4ccccc4)c4ccccc4)CC3)nn12 (hydrate or solvate) | 
6 | 156 to 170 °C | O=c1[nH]nc2ccc(NCCCN3CCC(OC(c4ccccc4)c4ccccc4)CC3)nn12 (hydrate or solvate) | 
7 | 181 to 185 °C | CC(C)(C(=O)O)n1nc2ccc(NCCCN3CCC(OC(c4ccccc4)c4ccccc4)CC3)nn2c1=O (hydrate or solvate) | 

Further lines, the molecule ahead of its results:

Row | Compound | melting point | further results
8 | c1ccc(C(OC2CCN(CCCNc3ccc4ncnn4n3)CC2)c2ccccc2)cc1 | 136 to 138 °C | 
9 | O=C(O)/C=C/C(=O)O.c1ccc(C(OC2CCN(CCCCCCOc3ccc4nncn4n3)CC2)c2ccccc2)cc1 | 144 to 146 °C | 
10 | CC(C)(C)c1nnc2ccc(OCCCN3CCC(OC(c4ccccc4)c4ccccc4)CC3)nn12 | 125 to 127 °C | 
11 | CC(C)(C(=O)O)c1cn2nc(NCCCN3CCC(OC(c4ccccc4)c4ccccc4)CC3)ccc2n1 | 205 to 206 °C | 
12 | CCOC(=O)C(C)(C)c1cn2nc(NCCCN3CCC(NC(c4ccccc4)c4ccccc4)CC3)ccc2n1 | 115 to 117 °C | 
13 | c1ccc(C(OC2CCN(CCCCCCNc3ccc4nncn4n3)CC2)c2ccccc2)cc1 (hydrate or solvate) | 124 to 127 °C | 
14 | O=C(O)c1nnc2ccc(NCCCN3CCC(OC(c4ccccc4)c4ccccc4)CC3)nn12 (hydrate or solvate) | 102 to 104 °C | 
15 | CC(C)(C(=O)O)c1cn2nc(NCCCN3CCC(OC(c4ccccc4)c4ccccc4)CC3)ccc2n1.O.O (hydrate or solvate) [Compound A, 2-[6-[3-[4-(diphenylmethoxy)piperidino]propylamino]imidazo[1,2-b]pyridazin-2-yl]-2-methylpropionic acid dihydrate] | 203 to 205 °C | 
16 | CC(C)(C(=O)O)c1cn2nc(NCCCN3CCC(OC(c4ccccc4)c4ccccc4)CC3)ccc2n1.O.O [Compound A, 2-[6-[3-[4-(diphenylmethoxy)piperidino]propylamino]imidazo[1,2-b]pyridazin-2-yl]-2-methylpropionic acid dihydrate] |  | influence on activated site-specific phosphorylation of ERKs (ERKs): no influence; expression amount of any other protein (RBL-2H3 cells): not influenced; effect on specific phosphorylation of JNK (JNK1 and JNK2) (JNK (JNK1 and JNK2); 10^−5 to 10^−7 mol/l, ten minutes after antigen stimulation): inhibited the specific phosphorylation of JNK (JNK1 and JNK2) in a dose-dependent manner; selectivity for JNK activation among cascades activated depending on IgE (JNK (JNK1 and JNK2); versus PLCγ, ERKs, p38MAPK in RBL-2H3 cells): selectively inhibits the activation of JNK; JNK activity of protein extract on c-Jun(1-89) substrate (JNK): inhibited depending on the concentration; influence on activated site-specific phosphorylation of PLCγ (PLCγ): no influence; effect on the increase in the amount of TNF-α in ear tissue (TNF-α; 0.1 to 10 mg/kg, one hour before DNFB): inhibited the increase in the amount of TNF-α in a dose-dependent manner; dose with significant inhibition of the increase in the amount of TNF-α (TNF-α; p<0.01 vs. control (Dunnett)): ≥ 1 mg/kg; influence on activated site-specific phosphorylation of p38MAPK (p38MAPK): no influence; effect on antigen stimulation-induced release of TNF-α (peritoneal mast cells): inhibited the antigen stimulation-induced release of TNF-α in a concentration-dependent manner
